Source: patent US8846570B2, “Herbicidal compositions comprising 4-amino-3-chloro-5-fluoro-6-(4-chloro-2-fluoro-3-methoxyphenyl)pyridine-2-carboxylic acid or a derivative thereof and microtubule inhibiting herbicides” (Dow AgroSciences LLC, priority 2012, dated 2014)

How the values were obtained:
Type in all cases: in vivo
[1] = test system: Cyperus difformis L. (CYPDI); experiment: Postemergence foliar-applied, direct seeded rice, greenhouse: visual weed control; details: 20 DAA; 5.3 g ae/ha
Method: (§1) Seeds or nutlets of the desired test plant species were planted in a soil matrix prepared by mixing a loam or sandy loam soil (e.g., 28.6 percent silt, 18.8 percent clay, and 52.6 percent sand, with a pH of about 5.8 and an organic matter content of about 1.8 percent) and calcareous grit in an 80 to 20 ratio. The soil matrix was contained in plastic pots with a volume of 1 quart and a surface area of 83.6 cm^2. […] The plants were grown for 8-22 days in a greenhouse with an approximate 14 h photoperiod which was maintained at about 29° C. during the day and 26° C. during the night. Nutrients (Peters Excel® 15-5-15 5-Ca 2-Mg and iron chelate) were applied in the irrigation solution as needed and water was added on a regular basis. Supplemental lighting was provided with overhead metal halide 1000-Watt lamps as necessary. The plants were employed for testing when they reached the first through fourth true leaf stage.
(§2) Forms of compound A were applied on an acid equivalent basis.
(§3) For treatments comprised of formulated compounds, measured amounts of compounds were placed individually in 25 mL glass vials and diluted in a volume of 1.25% (v/v) Agri-Dex® crop oil concentrated to obtain 12× stock solutions. […] Application solutions were prepared by adding an appropriate amount of each stock solution (e.g., 1 mL) and diluted to the appropriate final concentrations with the addition of 10 mL of an aqueous mixture of 1.25% (v/v) crop oil concentrate so that the final spray solutions contained 1.25+/−0.05% (v/v) crop oil concentrate.
(§4) As required, additional water and/or 97:3 v/v acetone/DMSO was added to individual application solutions so that the final acetone and DMSO concentrations of the application solutions being compared were 8.1% and 0.25%, respectively.
(§5) All stock solutions and applications solutions were visually inspected for compound compatibility prior to application. Spray solutions were applied to the plant material with an overhead Mandel track sprayer equipped with a 8002E nozzles calibrated to deliver 187 L/ha over an application area of 0.503 m^2 at a spray height of 18 to 20 inches (46 to 50 cm) above average plant canopy height. Control plants were sprayed in the same manner with the solvent blank.
(§6) The treated plants and control plants were placed in a greenhouse as described above and watered by sub-irrigation to prevent wash-off of the test compounds. After approximately 3 weeks, the condition of the test plants as compared with that of the untreated plants was determined visually and scored on a scale of 0 to 100 percent where 0 corresponds to no injury or growth inhibition and 100 corresponds to complete kill.
(§7) Colby's equation was used to determine the herbicidal effects expected from the mixtures (Colby, S. R. 1967. Calculation of the synergistic and antagonistic response of herbicide combinations. Weeds 15:20-22.).
(§8) The following equation was used to calculate the expected activity of mixtures containing two active ingredients, A and B: Expected=A+B−(A×B/100)

[2] = test system: Schoenoplectus juncoides (Roxb.) Palla (SCPJU); experiment: as above; details: 20 DAA; 5.3 g ae/ha
Method: as §1, §2, §3, §4, §5, §6, §7, §8

[3] = test system: Cyperus esculentus L. (CYPES); experiment: as above; details: 20 DAA
Method: as §1, §2, §3, §4, §5, §6, §7, §8

[4] = test system: Stellaria media (L.) Vill. (STEME); experiment: Postemergence foliar-applied, cereal crops, greenhouse: visual weed control; details: 21 DAA
Method: Seeds of the desired test plant species were planted in Sun Gro MetroMix® 306 planting mixture, which typically has a pH of 6.0 to 6.8 and an organic matter content of about 30 percent, in plastic pots with a surface area of 103.2 square centimeters (cm^2). When required to ensure good germination and healthy plants, a fungicide treatment and/or other chemical or physical treatment was applied. The plants were grown for 7-36 days in a greenhouse with an approximate 14 hour photoperiod which was maintained at about 18° C. during the day and about 17° C. during the night. Nutrients and water were added on a regular basis and supplemental lighting was provided with overhead metal halide 1000-Watt lamps as necessary. The plants were employed for testing when they reached the second or third true leaf stage.
Treatments consisted of the benzyl ester of 4-amino-3-chloro-5-fluoro-6-(4-chloro-2-fluoro-3-methoxy-phenyl)pyridine-2-carboxylic acid (Compound A), formulated as an SC, a second cereal herbicide alone and then both in combination.
Other herbicidal components were applied on an active ingredient basis and included microtubule-inhibiting herbicides.
Measured aliquots of benzyl ester of 4-amino-3-chloro-5-fluoro-6-(4-chloro-2-fluoro-3-methoxy-phenyl)pyridine-2-carboxylic acid (Compound A) were placed in 25 milliliter (mL) glass vials and diluted in a volume of 1.25% (v/v) Agri-Dex® crop oil concentrate to obtain stock solutions. Compound requirements are based upon a 12 mL application volume at a rate of 187 liters per hectare (L/ha). Spray solutions of the second cereal herbicide and experimental compound mixtures were prepared by adding the stock solutions to the appropriate amount of dilution solution to form 12 mL spray solution with active ingredients in two- and three-way combinations. Formulated compounds were applied to the plant material with an overhead Mandel track sprayer equipped with an 8002E nozzle calibrated to deliver 187 L/ha over an application area of 0.503 square meters (m^2) at a spray height of 18 inches (46 cm) above average plant canopy. Control plants were sprayed in the same manner with the solvent blank.
as §6, with “20-22 days,” for “approximately 3 weeks,”, “control” for “untreated”, “injury” for “injury or growth inhibition”
as §7, §8

[5] = test system: Leptochloa chinensis (L.) Nees (LEFCH); experiment: Postemergence foliar-applied, direct seeded rice, greenhouse: visual weed control; details: 19 DAA
Description: Seeds or nutlets of the desired test plant species were planted in a soil matrix prepared by mixing a loam or sandy loam soil (e.g., 28.6 percent silt, 18.8 percent clay, and 52.6 percent sand, with a pH of about 5.8 and an organic matter content of about 1.8 percent) and calcareous grit in an 80 to 20 ratio. The soil matrix was contained in plastic pots with a volume of 1 quart and a surface area of 83.6 cm^2. When required to ensure good germination and healthy plants, a fungicide treatment and/or other chemical or physical treatment was applied. The plants were grown for 8-22 days in a greenhouse with an approximate 14 h photoperiod which was maintained at about 29° C. during the day and 26° C. during the night. Nutrients (Peters Excel® 15-5-15 5-Ca 2-Mg and iron chelate) were applied in the irrigation solution as needed and water was added on a regular basis. Supplemental lighting was provided with overhead metal halide 1000-Watt lamps as necessary. The plants were employed for testing when they reached the first through fourth true leaf stage.
Treatments consisted of the acid or esters of 4-amino-3-chloro-5-fluoro-6-(4-chloro-2-fluoro-3-methoxy-phenyl)pyridine-2-carboxylic acid (Compound A), each formulated as an SC (suspension concentrate), and various herbicidal components alone and in combination. Forms of compound A were applied on an acid equivalent basis.
Treatment requirements were calculated based upon the rates being tested, the concentration of active ingredient or acid equivalent in the formulation, and a 12 mL application volume at a rate of 187 L/ha.
as §3, §4, §5, §6, §7, §8

COc1c(Cl)ccc(-c2nc(C(=O)O)c(Cl)c(N)c2F)c1F [Compound A Acid, 4-amino-3-chloro-6-(4-chloro-2-fluoro-3-methoxyphenyl)-5-fluoropyridine-2-carboxylic acid]
Visual Weed Control (%) Obs [1]: 80% | Visual Weed Control (%) Obs [2]: 25% | Visual Weed Control (%) Obs ([3]; 5.3 g ae/ha): 0% | Visual Weed Control (%) Obs ([3]; 10.6 g ae/ha): 90%

COc1c(Cl)ccc(-c2nc(C(=O)OCc3ccccc3)c(Cl)c(N)c2F)c1F [Compound A Benzyl Ester, benzyl ester of 4-amino-3-chloro-5-fluoro-6-(4-chloro-2-fluoro-3-methoxy-phenyl)pyridine-2-carboxylic acid]
Visual Weed Control (%) Obs ([4]; 2.5 g ai/ha): 25% | Visual Weed Control (%) Obs ([4]; 5 g ai/ha): 25% | Visual Weed Control (%) Obs ([4]; 10 g ai/ha): 27% | Visual Weed Control (%) Obs ([5]; 4.38 g ae/ha): 0% | Visual Weed Control (%) Obs ([5]; 8.75 g ae/ha): 25% | Visual Weed Control (%) Obs ([5]; 17.5 g ae/ha): 30%

CCC(CC)Nc1c([N+](=O)[O-])cc(C)c(C)c1[N+](=O)[O-] [Pendimethalin, N-(1-ethylpropyl)-3,4-dimethyl-2,6-dinitrobenzenamine, reference compound]
Visual Weed Control (%) Obs ([4]; 150 g ai/ha): 3% | Visual Weed Control (%) Obs ([4]; 300 g ai/ha): 5% | Visual Weed Control (%) Obs ([4]; 600 g ai/ha): 17% | Visual Weed Control (%) Obs ([5]; 140 g ai/ha): 0% | Visual Weed Control (%) Obs ([5]; 280 g ai/ha): 20% | Visual Weed Control (%) Obs ([5]; 560 g ai/ha): 80%
